Assay in all cases: Bacterial growth inhibition test / MIC calculation
What all share (details): MHB, 37° C., growth curves, linear regression, mean ± s.d.

In test [1] the test system is Acinetobacter baumannii (A. baumannii) 2208 ATCC19606. Format: cell-based. The text has this: (§1) The bacterial strains methicillin-sensitive Staphylococcus aureus (S. aureus) ATCC 29213, methicillin-resistant Staphylococcus aureus (MRSA) ATCC 43300, Enterococcus faecalis (E. faecalis) ATCC 29212, Escherichia coli (E. coli) ATCC 25922, Acinetobacter baumannii (A. baumannii) 2208 ATCC19606, Pseudomonas aeruginosa (P. aeruginosa) strain PAO1-LAC ATCC 47085, Klebsiella pneumoniae (K. pneumoniae) ATCC 13883 and multidrug-resistant K. pneumoniae (MDR), were obtained from the culture collection of the Oral Health Cooperative Research Centre, The Melbourne Dental School, University of Melbourne, Australia. Bacteria were cultured in Mueller Hinton Broth (MHB) at 37° C. 50 μL of suspensions with the desired concentrations of Se NPs, Se NP-ε-PL or pure ε-PL in PBS solution was added to each well of 96-well microplates, then 50 μL MHB with 2.5×10^6 bacteria/mL were added into each well. The plate was put into an iEMS microplate reader (Pathtech Pty Ltd, Melbourne, Australia) at a temperature of 37° C. to monitor bacterial growth by measuring the absorbance at wavelength of 630 nm for 24 h. Background absorbance values due to the Se NP solutions were subtracted from the measured absorbance values.
(§2) The absorbance values from bacteria growth curves at the time when the stationary phase starts (tsps) were taken and calculated as a percentage of the untreated control (Z=OD5/OD6×100%, where OD5 represents absorbance at tsps of experimental groups and OD6 represents the absorbance at tsps of the negative control group; all absorbance values had the culture medium background values subtracted). Concentration-inhibition curves were plotted with the percentages of absorbance, and linear regression analysis was adopted to determine the MIC at which Z becomes zero.

Test [2] deals with Pseudomonas aeruginosa (P. aeruginosa) strain PAO1-LAC ATCC 47085. The class given is cell-based.
Description: as §1, §2

For test [3], the system named is Enterococcus faecalis (E. faecalis) ATCC 29212. The class given is cell-based.
Description: as §1, §2

In test [4] the test system is Klebsiella pneumoniae (K. pneumoniae) ATCC 13883. Format: cell-based.
Description: as §1, §2

For test [5], the system named is methicillin-sensitive Staphylococcus aureus (S. aureus) ATCC 29213. The class given is cell-based.
Description: as §1, §2

For test [6], the system named is methicillin-resistant Staphylococcus aureus (MRSA) ATCC 43300. The class given is cell-based.
Description: as §1, §2

Test [7] relates to Escherichia coli (E. coli) ATCC 25922. The class given is cell-based.
Description: as §1, §2

Test [8] deals with multidrug-resistant K. pneumoniae (MDR). The class given is cell-based, Klebsiella pneumoniae.
Description: as §1, with “50 μL of suspensions with the desired concentrations of Se NPs, Se NP-ε-PL or pure ε-PL in PBS solution was added to each well of 96-well microplates, then 50 μL MHB with 2.5×10^6 bacteria/mL were added into each well.” left out
The absorbance values from bacteria growth curves at the time when the stationary phase starts (tsps) were taken and calculated as a percentage of the untreated control (Z=OD5/OD6×100%, where OD5 represents absorbance at tsps of experimental groups and OD6 represents the absorbance at tsps of the negative control group; all absorbance values had the culture medium background values subtracted). […]

With ε-poly-L-lysine [ε-PL], the MIC in test [1] was 21.6 ± 7.0 µg/mL; in test [2], 9.5 ± 3.6 µg/mL; in test [3], 27.1 ± 2.2 µg/mL; in test [4] it was 12.0 ± 0.6 µg/mL; in test [5], 7.5 ± 1.0 µg/mL; in test [6], 11.6 ± 2.0 µg/mL. Also, the MIC in test [7] is 13.2 ± 0.5 µg/mL; in test [8] it was 26.5 ± 0.5 µg/mL.

(Values after US20220339187A1, “ANTIMICROBIAL PEPTIDE-SELENIUM NANOPARTICLES” (The University of Melbourne, priority 2019, published 2022).)
